Test results as given in PMC6201103, “The Small-Compound Inhibitor K22 Displays Broad Antiviral Activity against Different Members of the Family Flaviviridae and Offers Potential as a Panviral Inhibitor” (Antimicrobial Agents and Chemotherapy, 2018).

Assays:
[1] = test system: HCV; assay: HCV replication, JcR-2a Renilla luciferase reporter virus in Huh7-Lunet-N-hCD81-FLuc cells; assay type: cell-based, hepatitis C virus
[2] = MTT cell proliferation assay; assay type: cell-based; conditions: human, Huh7-Lunet-N-hCD81-FLuc cells, 48 h posttreatment
[3] = test system: Huh7-Lunet-N-hCD81-FLuc cells; assay: MTT cell proliferation assay; assay type: cell-based
[4] = test system: ZIKV; assay: Combination treatment, ZIKV titers (TCID50) in Vero B4 cells; conditions: for combination index (CI): CompuSyn
[5] = test system: Vero B4 cells; assay: Proliferation/viability, MultiTox-Fluor multiplex cytotoxicity assay on Vero B4 cells; assay type: cell-based
Protocol: (§1) To evaluate the effect of K22 on cell viability, proliferation, as well as cytotoxicity, uninfected cells were treated with the compound at the concentrations specified above or with DMSO as a control. To determine the effect of K22 on cell viability, Vero cells were collected and labeled with the Fixable Aqua dead cell stain kit (Thermo Fisher Scientific) for 30 min on ice, before the cells were washed with cold PBS and fixed for flow cytometry analysis. As a positive control for cell death, cells were heated at 65°C for 30 min. The mean fluorescence intensity (MFI) was determined by flow cytometry analysis on a FACSCanto II flow cytometer (BD Bioscience) and evaluated using FlowJo (v.9.1) software. […] The compound was added at the concentrations indicated above, and cytotoxicity was determined at 24 and/or 48 h p.i. by determination of the absorbance at 490 nm using a plate reader (VersaMax [Molecular Devices, Wokingham, UK] or an EnSpire 2300 multilabel reader [PerkinElmer, Schwerzenbach, Switzerland]). Cell proliferation following compound treatment was determined using a MultiTox-Fluor multiplex cytotoxicity assay (catalog number G9200; Promega) according to the manufacturer's recommendations. The readout was performed using a multilabel reader (EnSpire 2300 multilabel reader; PerkinElmer) upon excitation at ∼400 nm and emission at ∼505 nm. […]

[6] = Proliferation, MultiTox-Fluor multiplex cytotoxicity assay on BT cells; assay type: cell-based, bovine; conditions: bovine, MultiTox-Fluor assay
Protocol: as §1

[7] = test system: BT cells; assay: as above; assay type: cell-based, bovine
Protocol: as §1

[8] = test system: ZIKV; assay: Time-of-addition assay, ZIKV in Vero B4 cells; assay type: cell-based, Zika virus; conditions: K22 added pre- or postinfection, supernatant at 24 h p.i.
[9] = test system: WNV; assay: WNV infectivity (TCID50 titration) and replication in K22-treated Vero cells; assay type: cell-based, West Nile virus; conditions: for IC50: West Nile virus, MOI 0.1 TCID50/cell
Protocol: To test the effect of K22 on flavivirus, hepacivirus, and pestivirus infection, 8 × 10^4 Vero cells were seeded in 12-well dishes (flaviviruses), 5 × 10^4 Huh7-Lunet-N-hCD81-FLuc cells were seeded in 12-well dishes (hepacivirus), or 1 × 10^4 BT cells were seeded in 96-well dishes (pestivirus). At 1 day postseeding, cells were treated with different concentrations of K22 (diluted in DMSO at the concentrations indicated below) for 3 to 4 h and preincubated in 5% CO2 at 37°C. Cells were infected with different viruses at a multiplicity of infection (MOI) of 0.1 TCID50/cell for 1 h at 37°C. For HCV infection, cells were infected with JcR-2a or HCV Jc1 for 3 h at 37°C. Afterwards, cells were washed with prewarmed phosphate-buffered saline (PBS) solution, before cell culture medium supplemented with K22 or the DMSO control at each concentration was added, and incubated at 37°C in a 5% CO2 atmosphere. At 24 h and/or 48 h postinfection (p.i.), supernatants and cells were collected for further analysis.
Flavivirus replication and the cytopathic effect (CPE) were evaluated from collected cells. Cells in suspension were first labeled with the Fixable Aqua dead cell stain kit (Thermo Fisher Scientific, Waltham, MA, USA) for 30 min on ice, followed by washing with cold PBS. […] After washing, anti-mouse IgG2a conjugated with Alexa Fluor 647 (Thermo Fisher Scientific) was added for 15 min, and the cells were acquired on a FACSCanto II flow cytometer (BD Biosciences, Allschwil, Switzerland). FlowJo (v.9.1) software (TreeStar, Inc., Ashland, OR, USA) was used for analysis. Cell debris and doublets were excluded by electronic gating in forward/side scatter plots. Cell culture supernatants were collected at 24 and 48 h p.i., and the flavivirus titers in Vero cells were determined using the immunoperoxidase monolayer assay (IPMA). For that, supernatants 10-fold diluted in cell culture medium supplemented with 2% (vol/vol) FBS were incubated on Vero cells for 72 h at 37°C in a 5% CO2 atmosphere. At that point, cells were fixed in 4% (wt/vol) PFA for 10 min at room temperature, washed, and immunolabeled with anti-flavivirus group antigen antibody 4G2 diluted in 0.3% (wt/vol) saponin in PBS for 30 min at 37°C and then washed and incubated for another 30 min at 37°C with goat anti-mouse IgG conjugated with horseradish peroxidase (Dako), followed by incubation for 10 to 30 min at room temperature with 3-amino-9-ethylcarbazole (AEC) substrate (Sigma-Aldrich).

[10] = test system: BVDV SuwaCp; assay: microbe, parasite or virus in culture; assay type: cell-based, bovine viral diarrhea virus

## O=C(N/C(=C\c1ccccc1)C(=O)N1CCC(O)(c2ccc(Br)cc2)CC1)c1ccccc1 [K22, (Z)-N-{3-[4-(4-bromophenyl)-4-hydroxypiperidin-1-yl]-3-oxo-1-phenylprop-1-en-2-yl} benzamide]
[1]; CC50 21.3 μM vs IC50 7.0 μM
  CC50 relative to IC50 (replication), HCV: 3 fold
[1]; Hepatitis C virus, 48 h, read-out: IC50 for replication, HCV
  IC50: 7 µM
[1]; {}
  K22 concentrations significantly reducing HCV replication as well as infectivity: ≥ 20 µM
[2]
  CC50 at 48 h: 21.3 µM
[3]
  K22 concentrations affecting the cells used for infection: ≥ 20 µM
[4]; 5 to 10 μM K22 combined with ≥10 IU IFN-α, 24 h p.i., no further impact on cell proliferation
  reduction of ZIKV viral titers: at least 3 orders of magnitude
[4]; K22 10 to 30 μM with 10 IU IFN-α, slight synergism
  combination index (CI): < 1
[4]; K22 and RBV, concentrations causing only partial inhibition, additive effect
  combination index (CI): about 1
[4]; K22 with either 0.1 or 1 μg/ml RBV
  effect of combination on antiviral effect of K22: did not improve the antiviral effect of K22
[5]
  K22 concentrations that mildly affected cell proliferation: ≥ 30 µM
[6]
  CC50: > 350 µM
[7]
  K22 concentrations affecting cell proliferation: ≥ 30 µM
[8]
  antiviral activity by time of addition: displayed antiviral activity when added at several hours postinfection
[9]; 24 h p.i.
  SI (selectivity index), WNV: 32.3
[9]; 48 h p.i.
  SI (selectivity index), WNV: 10.0
[9]; Vero cells
  K22 concentrations significantly reducing WNV replication and infectivity: ≥ 10 µM
[9]; 24 h p.i., Vero cells
  IC50: 2.8 µM
[9]; 48 h p.i., Vero cells
  IC50: 8.4 µM
[10]
  SI (selectivity index), BVDV SuwaCp: >24.6
[10]; Bovine viral diarrhea virus isolates and strains, read-out: IC50 for infectivity, BVDV SuwaCp
  IC50: 14.2 µM
